Experiments:
Type in all cases: in vivo
[1] = tested on: barnyardgrass (Echinochloa crus-galli); experiment: Test G Pre-Emergence Protocol; settings: Echinochloa crus-galli, pre-emergence, 312 h, evaluated after 13 days
Method in brief: (§1)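 Glasshouse pre-emergence test: soil-sown seeds, sprayed after 1 d at 15.625, 62.5 or 250 g/ha. Conditions 24/16° C day/night, 14 h light, 65% humidity, watering twice daily. Rating 13 d post-spray (100 = total damage).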

[2] = tested on: corn (Zea mays); experiment: Test G Pre-Emergence Protocol; settings: Zea mays, pre-emergence, 312 h, evaluated after 13 days
Method in brief: as §1

[3] = tested on: giant foxtail (Setaria faberi); experiment: Test G Pre-Emergence Protocol; settings: Setaria faberi, pre-emergence, 312 h, evaluated after 13 days
Method in brief: as §1

[4] = tested on: ivy-leaved morning glory (Ipomoea hederacea); experiment: Test G Pre-Emergence Protocol; settings: Ipomoea, pre-emergence, 312 h, evaluated after 13 days
Method in brief: as §1

[5] = tested on: redroot pigweed (Amaranthus retroflexus); experiment: Test G Pre-Emergence Protocol; settings: Amaranthus retroflexus, pre-emergence, 312 h, evaluated after 13 days
Method in brief: as §1

[6] = tested on: velvetleaf (Abutilon theophrasti); experiment: Test G Pre-Emergence Protocol; settings: Abutilon theophrasti, pre-emergence, 312 h, evaluated after 13 days
Method in brief: as §1

[7] = tested on: barnyardgrass (Echinochloa crus-galli); experiment: Test G Post-Emergence Protocol; settings: Echinochloa crus-galli, post-emergence, 312 h
Method in brief: (§2)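 Pot-grown seedlings, 8 days old, raised in a glasshouse at 24/16 °C day/night with 14 h light and 65% humidity, were sprayed post-emergence with test compound in acetone/water (50:50) plus 0.5% Tween 20 at 15.625, 62.5 or 250 g/ha. Damage was scored visually 13 days later on a 0–100 scale (100 = total damage).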

[8] = tested on: corn (Zea mays); experiment: Test G Post-Emergence Protocol; settings: Zea mays, post-emergence, 312 h
Method in brief: as §2

[9] = tested on: giant foxtail (Setaria faberi); experiment: Test G Post-Emergence Protocol; settings: Setaria faberi, post-emergence, 312 h
Method in brief: as §2

[10] = tested on: ivy-leaved morning glory (Ipomoea hederacea); experiment: Test G Post-Emergence Protocol; settings: Ipomoea, post-emergence, 312 h
Method in brief: as §2

[11] = tested on: redroot pigweed (Amaranthus retroflexus); experiment: Test G Post-Emergence Protocol; settings: Amaranthus retroflexus, post-emergence, 312 h
Method in brief: as §2

[12] = tested on: velvetleaf (Abutilon theophrasti); experiment: Test G Post-Emergence Protocol; settings: Abutilon theophrasti, post-emergence, 312 h
Method in brief: as §2

C=CCc1ccc(Cl)cc1NC(=O)[C@H]1C(=O)N(C)C[C@@H]1c1ccc(C(F)(F)F)cc1 (racemic) [Compound 1441]
pest or weed control at 15.625 g/ha ([1]; 15.625 g ai/ha, read-out: Barnyard grass damage rating (100=total damage to plant; 0=no damage to plant)): 0% | pest or weed control at 62.5 g/ha ([1]; 62.5 g ai/ha, 100=total damage to plant, 0=no damage to plant, read-out: plant damage rating, Barnyardgrass): 0% | pest or weed control at 250 g/ha ([1]; 250 g ai/ha, read-out: Barnyardgrass damage rating (100=total damage to plant; 0=no damage to plant)): 0% | plant injury at 15.625 g/ha ([2]; 15.625 g ai/ha, read-out: Corn damage rating (100=total damage to plant; 0=no damage to plant)): 0% | plant injury at 62.5 g/ha ([2]; 62.5 g ai/ha, 100=total damage to plant, 0=no damage to plant, read-out: plant damage rating, Corn): 0% | plant injury at 250 g/ha ([2]; 250 g ai/ha, read-out: Corn damage rating (100=total damage to plant; 0=no damage to plant)): 0% | pest or weed control at 15.625 g/ha ([3]; 15.625 g ai/ha, read-out: Foxtail, Giant damage rating (100=total damage to plant; 0=no damage to plant)): 0% | pest or weed control at 62.5 g/ha ([3]; 62.5 g ai/ha, 100=total damage to plant, 0=no damage to plant, read-out: plant damage rating, Foxtail, Giant): 0% | pest or weed control at 250 g/ha ([3]; 250 g ai/ha, read-out: Foxtail, Giant damage rating (100=total damage to plant; 0=no damage to plant)): 0% | pest or weed control at 15.625 g/ha ([4]; 15.625 g ai/ha, read-out: Morning-glory, Ivy-leaved damage rating (100=total damage to plant; 0=no damage to plant)): 0% | pest or weed control at 62.5 g/ha ([4]; 62.5 g ai/ha, 100=total damage to plant, 0=no damage to plant, read-out: plant damage rating, Morningglory, Ivy-leaved): 0% | pest or weed control at 250 g/ha ([4]; 250 g ai/ha, read-out: Morningglory, Ivy-leaved damage rating (100=total damage to plant; 0=no damage to plant)): 0% | pest or weed control at 15.625 g/ha ([5]; 15.625 g ai/ha, read-out: Pigweed, Redroot damage rating (100=total damage to plant; 0=no damage to plant)): 0% | pest or weed control at 62.5 g/ha ([5]; 62.5 g ai/ha, 100=total damage to plant, 0=no damage to plant, read-out: plant damage rating, Pigweed, Redroot): 0% | pest or weed control at 250 g/ha ([5]; 250 g ai/ha, read-out: Pigweed, Redroot damage rating (100=total damage to plant; 0=no damage to plant)): 0% | pest or weed control at 15.625 g/ha ([6]; 15.625 g ai/ha, read-out: Velvetleaf damage rating (100=total damage to plant; 0=no damage to plant)): 0% | pest or weed control at 62.5 g/ha ([6]; 62.5 g ai/ha, 100=total damage to plant, 0=no damage to plant, read-out: plant damage rating, Velvetleaf): 0% | pest or weed control at 250 g/ha ([6]; 250 g ai/ha, read-out: Velvetleaf damage rating (100=total damage to plant; 0=no damage to plant)): 0% | pest or weed control at 15.625 g/ha ([7]; 15.625 g ai/ha, evaluated after 13 days (100=total damage to plant; 0=no damage to plant), read-out: Barnyardgrass damage rating): 0% | pest or weed control at 62.5 g/ha ([7]; 62.5 g ai/ha, evaluated after 13 days, read-out: Barnyardgrass damage rating (100=total damage to plant; 0=no damage to plant)): 0% | pest or weed control at 250 g/ha ([7]; 250 g ai/ha, evaluated after 13 days, read-out: damage to plant, Barnyardgrass (100=total damage to plant; 0=no damage to plant)): 0% | plant injury at 15.625 g/ha ([8]; 15.625 g ai/ha, evaluated after 13 days (100=total damage to plant; 0=no damage to plant), read-out: Corn damage rating): 0% | plant injury at 62.5 g/ha ([8]; 62.5 g ai/ha, evaluated after 13 days, read-out: Corn damage rating (100=total damage to plant; 0=no damage to plant)): 0% | plant injury at 250 g/ha ([8]; 250 g ai/ha, evaluated after 13 days, read-out: damage to plant, Corn (100=total damage to plant; 0=no damage to plant)): 20% | pest or weed control at 15.625 g/ha ([9]; 15.625 g ai/ha, evaluated after 13 days (100=total damage to plant; 0=no damage to plant), read-out: Foxtail, Giant damage rating): 0% | pest or weed control at 62.5 g/ha ([9]; 62.5 g ai/ha, evaluated after 13 days, read-out: Foxtail, Giant damage rating (100=total damage to plant; 0=no damage to plant)): 0% | pest or weed control at 250 g/ha ([9]; 250 g ai/ha, evaluated after 13 days, read-out: damage to plant, Foxtail, Giant (100=total damage to plant; 0=no damage to plant)): 20% | pest or weed control at 15.625 g/ha ([10]; 15.625 g ai/ha, evaluated after 13 days (100=total damage to plant; 0=no damage to plant), read-out: Morningglory, Ivy-leaved damage rating): 0% | pest or weed control at 62.5 g/ha ([10]; 62.5 g ai/ha, evaluated after 13 days, read-out: Morningglory, Ivy-leaved damage rating (100=total damage to plant; 0=no damage to plant)): 0% | pest or weed control at 250 g/ha ([10]; 250 g ai/ha, evaluated after 13 days, read-out: damage to plant, Morningglory, Ivy-leaved (100=total damage to plant; 0=no damage to plant)): 0% | pest or weed control at 15.625 g/ha ([11]; 15.625 g ai/ha, evaluated after 13 days (100=total damage to plant; 0=no damage to plant), read-out: Pigweed, Redroot damage rating): 0% | pest or weed control at 62.5 g/ha ([11]; 62.5 g ai/ha, evaluated after 13 days, read-out: Pigweed, Redroot damage rating (100=total damage to plant; 0=no damage to plant)): 0% | pest or weed control at 250 g/ha ([11]; 250 g ai/ha, evaluated after 13 days, read-out: damage to plant, Pigweed, Redroot (100=total damage to plant; 0=no damage to plant)): 0% | pest or weed control at 15.625 g/ha ([12]; 15.625 g ai/ha, evaluated after 13 days (100=total damage to plant; 0=no damage to plant), read-out: Velvetleaf damage rating): 0% | pest or weed control at 62.5 g/ha ([12]; 62.5 g ai/ha, evaluated after 13 days, read-out: Velvetleaf damage rating (100=total damage to plant; 0=no damage to plant)): 0% | pest or weed control at 250 g/ha ([12]; 250 g ai/ha, evaluated after 13 days, read-out: damage to plant, Velvetleaf (100=total damage to plant; 0=no damage to plant)): 0%
